Structures are written as SMILES.

`CS(=O)(=O)Nc1ccc2nn(C3CCCC3)nc2c1`: the logP (as a rule, a log measure of how a compound divides between an organic and an aqueous phase) came to 2.44.
`CCOC(=O)Nc1ccc2nn(C3CCCC3)nc2c1` yielded a logP of 3.43.
The same measure for `Nc1ccc(S(=O)(=O)Nc2ccc3nn(C4CCCC4)nc3c2)cc1`: 2.48.
For the compound `O=C(Nc1ccc2nn(C3CCCC3)nc2c1)C(Cl)Cl`, the logP is 3.4.
The compound `O=C(Nc1ccc2nn(C3CCCC3)nc2c1)c1ccccc1` yielded a logP of 3.85.
As for `CC(C)COC(=O)Nc1ccc2nn(C3CCCC3)nc2c1`, the figure is 4.28; as for `CC(=O)Nc1ccc2nn(C3CCCC3)nc2c1`, 2.45; as for `O=C(Nc1ccc2nn(C3CCCC3)nc2c1)C(Cl)(Cl)Cl`, 4.12.
For the compound `CC(C)(C)C(=O)Nc1ccc2nn(C3CCCC3)nc2c1`, the log partition coefficient (logP) came out at 3.4.
The same measure for `O=C(Nc1ccc2nn(C3CCCC3)nc2c1)c1ccc([N+](=O)[O-])cc1`: 3.75; for `O=C(Nc1ccc2nn(C3CCCC3)nc2c1)c1ccc(Cl)c(Cl)c1`: 5.32; for `O=C(Nc1ccc2nn(C3CCCC3)nc2c1)c1ccc(Cl)cc1`: 4.11.
The same measure for `Cc1ccc(S(=O)(=O)Nc2ccc3nn(C4CCCC4)nc3c2)cc1`: 3.91; for `COc1cc(C(=O)Nc2ccc3nn(C4CCCC4)nc3c2)cc(OC)c1OC`: 3.87.
As for `O=C(CCl)Nc1ccc2nn(C3CCCC3)nc2c1`, the figure is 2.78.
Compound `O=C(Nc1ccc2nn(C3CCCC3)nc2c1)c1ccc(C(F)(F)F)cc1` displayed a logP of 4.95.
As for `O=[N+]([O-])c1ccc(S(=O)(=O)Nc2ccc3nn(C4CCCC4)nc3c2)cc1`, the figure is 3.82.

(Values after the OPERA property sets (Mansouri et al. 2018).)
